The source made the active and inactive calls.
Tests used:
[1] = viability of uninfected HEp-2 cells – cell-based, HTS, cytotoxicity control for RSV inhibitor project, dose response (AID 2410); format: functional; settings: human respiratory syncytial virus
Vero = experiment: cells; format: functional, cell-based; settings: Chlorocebus sabaeus
[2] = molecular target: T1, Dual specificity protein phosphatase 6 (Rattus norvegicus, UniProt Q64346); experiment: inhibition of rat DUSP6 enzyme activity – biochemical, in vitro, primary screen (AID 425)
T1 sequence (Q64346 whole entry): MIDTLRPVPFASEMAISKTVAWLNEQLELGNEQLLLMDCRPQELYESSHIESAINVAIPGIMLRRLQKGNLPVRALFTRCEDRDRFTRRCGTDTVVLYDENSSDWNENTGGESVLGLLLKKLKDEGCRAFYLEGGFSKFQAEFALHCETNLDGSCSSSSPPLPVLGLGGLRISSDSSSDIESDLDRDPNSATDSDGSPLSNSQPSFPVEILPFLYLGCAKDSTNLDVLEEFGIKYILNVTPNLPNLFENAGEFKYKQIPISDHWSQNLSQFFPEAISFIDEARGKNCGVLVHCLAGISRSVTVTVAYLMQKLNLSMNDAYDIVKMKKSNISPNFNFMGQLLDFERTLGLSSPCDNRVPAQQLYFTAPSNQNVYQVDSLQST

[3] = molecular target: Endoplasmic reticulum aminopeptidase 1 (Homo sapiens, UniProt Q9NZ08); experiment: inhibition of human ERAP1 enzyme activity – biochemical, cherry-pick, set 2, plate reader, dose response (AID 743314)
HeLa = experiment: viability loss in HeLa cells – cell-based, 24 h, cherry-picked samples, cytotoxicity control, dose response (AID 504726); format: functional; settings: Homo sapiens;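 note: potency for cytotoxicity as loss of luminescence signal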
[4] = NIH-3T3 fibroblast cytotoxicity, dose response, cytotoxicity control, cell-based, fluorescence, Alamar Blue, secondary assay (AID 2327); format: functional;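 note: NIH-3T3 mouse fibroblasts cultured with fluconazole at 8 µg/mL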
[5] = microbe, parasite or virus in culture; format: functional; settings: Mycobacterium tuberculosis
[6] = fluconazole-exposed Candida albicans growth modulators – fluorescence, retest, confirmation (AID 2467); format: functional, cell-based
[7] = molecular target: T2, DNA repair protein RAD52 homolog (Homo sapiens, UniProt P43351); format: functional, biochemical
T2 sequence (P43351 whole entry): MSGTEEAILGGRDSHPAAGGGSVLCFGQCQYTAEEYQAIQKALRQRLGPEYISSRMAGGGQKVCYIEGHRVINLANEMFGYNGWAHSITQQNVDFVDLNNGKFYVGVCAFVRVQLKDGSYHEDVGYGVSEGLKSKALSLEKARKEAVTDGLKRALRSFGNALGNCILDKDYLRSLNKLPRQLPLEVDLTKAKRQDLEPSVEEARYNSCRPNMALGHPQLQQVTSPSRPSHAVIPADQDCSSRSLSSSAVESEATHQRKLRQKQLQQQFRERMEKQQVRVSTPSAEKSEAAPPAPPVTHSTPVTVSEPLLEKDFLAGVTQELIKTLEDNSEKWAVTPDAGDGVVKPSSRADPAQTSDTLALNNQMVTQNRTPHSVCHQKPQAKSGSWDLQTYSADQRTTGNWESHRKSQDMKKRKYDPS

[8] = molecular target: T3, COUP transcription factor 2 (Homo sapiens, UniProt P24468); experiment: Luminescence-based cell-based high throughput dose response assay to identify inhibitors of COUP-TFII (NR2F2).; format: functional;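 note: HEK293 cells transiently cotransfected with COUP-TFII expression vector and reporter; luciferase reporter luminescence driven by COUP-TFII from the pX2-168 reporter plasmid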
T3 sequence (P24468 whole entry): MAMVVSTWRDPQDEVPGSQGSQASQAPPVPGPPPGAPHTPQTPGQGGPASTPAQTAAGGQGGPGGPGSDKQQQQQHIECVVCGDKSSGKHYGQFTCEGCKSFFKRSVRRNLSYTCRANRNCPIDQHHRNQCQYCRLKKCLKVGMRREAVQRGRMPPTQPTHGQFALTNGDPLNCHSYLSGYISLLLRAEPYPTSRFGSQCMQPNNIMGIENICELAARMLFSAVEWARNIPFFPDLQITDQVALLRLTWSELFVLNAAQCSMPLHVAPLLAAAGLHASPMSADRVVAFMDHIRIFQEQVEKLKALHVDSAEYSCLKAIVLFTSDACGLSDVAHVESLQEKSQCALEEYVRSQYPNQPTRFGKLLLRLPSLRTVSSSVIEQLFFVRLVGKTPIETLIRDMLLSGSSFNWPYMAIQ

INS1 = experiment: INS-1E survival protection against cytokine death – cell-based, luminescence, retest, dose response (AID 449756); format: functional; settings: Rattus norvegicus;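 note: cell death triggered by IL-1 beta plus TNF-alpha plus IFN-gamma mixture; protective hits raise ATP signal compared with cytokine alone wells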
[9] = Luminescence-based cell-based high throughput dose response assay to identify activators of the DAF-12 from the parasite S. stercoralis (ssDAF-12).; format: functional
Protein skinhead-1 = molecular target: T4, Protein skinhead-1 (Caenorhabditis elegans, UniProt P34707); format: functional
T4 sequence (P34707 whole entry): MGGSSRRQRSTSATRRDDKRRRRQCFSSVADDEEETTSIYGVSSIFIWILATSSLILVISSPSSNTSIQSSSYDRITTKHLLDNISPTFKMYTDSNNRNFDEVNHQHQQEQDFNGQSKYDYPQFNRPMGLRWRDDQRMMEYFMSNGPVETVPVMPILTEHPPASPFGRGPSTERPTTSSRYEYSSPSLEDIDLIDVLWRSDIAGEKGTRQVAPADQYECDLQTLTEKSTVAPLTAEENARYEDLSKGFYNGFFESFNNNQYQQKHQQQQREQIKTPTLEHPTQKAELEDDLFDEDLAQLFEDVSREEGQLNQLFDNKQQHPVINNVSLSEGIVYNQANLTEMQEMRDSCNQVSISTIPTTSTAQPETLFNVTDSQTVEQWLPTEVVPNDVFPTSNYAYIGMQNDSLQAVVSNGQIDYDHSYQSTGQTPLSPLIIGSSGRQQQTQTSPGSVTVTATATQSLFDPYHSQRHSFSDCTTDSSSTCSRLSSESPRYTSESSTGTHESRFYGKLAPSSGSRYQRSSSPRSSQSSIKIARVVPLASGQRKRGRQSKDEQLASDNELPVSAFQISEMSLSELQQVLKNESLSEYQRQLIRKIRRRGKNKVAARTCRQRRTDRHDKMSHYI

[10] = Luminescence Cell-Based Dose Confirmation HTS to Identify Inhibitors of Platelet Dense Granule Release. [Related pubchem assays: 1663 (Primary HTS), 1678 (Summary of Project)]; format: functional
[11] = molecular target: Luciferin 4-monooxygenase (Photinus pyralis, UniProt P08659); experiment: inhibition of purified Photinus pyralis luciferase – biochemical, luminescence, dose response (AID 1891)
[12] = molecular target: T5, Rac GTPase-activating protein 1 (Homo sapiens, UniProt Q9H0H5); experiment: blockers of MgcRacGAP-driven Rac1 GTP hydrolysis – biochemical, ADP Hunter fluorescence, primary and confirmatory, confirmation (AID 624330); format: functional
T5 sequence (Q9H0H5 whole entry): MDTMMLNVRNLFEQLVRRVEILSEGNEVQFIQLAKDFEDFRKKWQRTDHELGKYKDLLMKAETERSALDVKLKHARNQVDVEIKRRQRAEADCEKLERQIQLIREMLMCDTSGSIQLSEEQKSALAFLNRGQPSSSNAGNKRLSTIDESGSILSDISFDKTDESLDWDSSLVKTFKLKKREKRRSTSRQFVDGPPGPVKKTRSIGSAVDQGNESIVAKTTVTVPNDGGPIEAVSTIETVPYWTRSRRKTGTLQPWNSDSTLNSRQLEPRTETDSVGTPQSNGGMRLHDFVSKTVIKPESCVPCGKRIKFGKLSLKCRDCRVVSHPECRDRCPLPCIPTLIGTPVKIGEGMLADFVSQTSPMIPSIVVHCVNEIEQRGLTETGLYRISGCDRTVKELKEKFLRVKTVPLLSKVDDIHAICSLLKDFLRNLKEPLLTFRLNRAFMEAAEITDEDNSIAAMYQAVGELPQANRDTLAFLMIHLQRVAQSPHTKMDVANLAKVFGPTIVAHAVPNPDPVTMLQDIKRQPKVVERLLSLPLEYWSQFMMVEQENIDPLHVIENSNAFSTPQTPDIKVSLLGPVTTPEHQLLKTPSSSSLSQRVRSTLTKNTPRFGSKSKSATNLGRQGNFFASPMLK

Genome polyprotein = Genome polyprotein (dengue virus type 2, UniProt P29990); experiment: flavivirus cap methylation enzyme inhibition – biochemical, confirmation dose response, primary screen (AID 588689); format: functional
[13] = molecular target: Neurotensin receptor type 1 (Homo sapiens, UniProt P30989); format: functional;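 note: Image-based confirmatory dose-response assay measuring agonist activity at NTR1; NTR1-expressing U2OS osteosarcoma cells imaged for beta-arrestin GFP spot formation; agonist potency where compounds increase beta-arrestin recruitment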
P388 = experiment: cells; format: functional; settings: Mus musculus
[14] = non-specific 3'UTR reporter inhibition in Clone20-Shn3RL – cell-based, Renilla luciferase, cherry-picked, counter-screen for Shn3 inhibitor project, dose response (AID 624133); format: functional
Paired box protein Pax-8 = Paired box protein Pax-8 (Homo sapiens, UniProt Q06710); experiment: PAX8 transcriptional activity inhibition in RMG-I – RMG-I cells, luciferase, cherry-pick, dose response (AID 687027); format: functional, cell-based;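 note: luciferase reporter driven by Pax8 target thyroperoxidase promoter measured by SteadyGlo luminescence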
SN12K1 = experiment: cells; format: functional; settings: Homo sapiens
[15] = reduction of Shn3 3'UTR-driven luciferase in osteoblasts – cell-based, Clone20 osteoblasts, firefly luciferase, cherry-picked, dose response (AID 624132); format: functional;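 note: firefly luciferase luminescence from reporter carrying the Shn3 3'UTR in osteoblasts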
P388/ADR = experiment: cells; format: functional; settings: Mus musculus
[16] = HEK-293T cell viability reduction – luminescence, B-cell screen hits, cytotoxicity control for BCR NF-kB inhibitor project, dose response (AID 489021); format: functional, cell-based;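 note: HEK-293T cells carrying an NF-kB luciferase reporter; cells exposed to compound for about 14 hours before viability readout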
[17] = Luminescence Cell-Based Dose Retest to Confirm Inhibitors of Cancer Stem Cells. [Related pubchem assays (depositor defined):AID2717, AID2721]; format: functional; settings: Homo sapiens
[18] = OVCAR8 cell viability loss – plate reader, dry powder samples, PAX8 project, dose response (AID 743197); format: functional, cell-based; settings: OVCAR-8
[19] = growth inhibition of yeast DHODH-expressing 3D7 parasites – SYBR Green, dry powder samples, dose response (AID 1159570); format: functional, cell-based;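 note: parasite growth measured after 72 hours of compound exposure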
[20] = toxicity to human HepG2 hepatoma cells – cell-based, plate reader, dry powder samples, cytotoxicity control, dose response (AID 1159569); format: functional;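 note: inhibitor potency with signal falling toward the positive control level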
[21] = growth inhibition of PfATP4-mutant resistant parasites – NITD609-resistant line, SYBR Green, dry powder, dose response (AID 1159571); format: functional, cell-based;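 note: parasites synchronized at ring stage by sorbitol before testing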
[22] = P. falciparum Dd2 growth inhibitors, dose response, SYBR Green, cherry-picked samples (AID 1159567); format: functional, cell-based
[23] = Dd2 malaria parasite growth inhibition potency – SYBR Green, dry powder samples, dose response (AID 1159566); format: functional, cell-based;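 note: potency for growth inhibition with lower SYBR green DNA signal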

Sequence of Endoplasmic reticulum aminopeptidase 1 (Q9NZ08 whole entry): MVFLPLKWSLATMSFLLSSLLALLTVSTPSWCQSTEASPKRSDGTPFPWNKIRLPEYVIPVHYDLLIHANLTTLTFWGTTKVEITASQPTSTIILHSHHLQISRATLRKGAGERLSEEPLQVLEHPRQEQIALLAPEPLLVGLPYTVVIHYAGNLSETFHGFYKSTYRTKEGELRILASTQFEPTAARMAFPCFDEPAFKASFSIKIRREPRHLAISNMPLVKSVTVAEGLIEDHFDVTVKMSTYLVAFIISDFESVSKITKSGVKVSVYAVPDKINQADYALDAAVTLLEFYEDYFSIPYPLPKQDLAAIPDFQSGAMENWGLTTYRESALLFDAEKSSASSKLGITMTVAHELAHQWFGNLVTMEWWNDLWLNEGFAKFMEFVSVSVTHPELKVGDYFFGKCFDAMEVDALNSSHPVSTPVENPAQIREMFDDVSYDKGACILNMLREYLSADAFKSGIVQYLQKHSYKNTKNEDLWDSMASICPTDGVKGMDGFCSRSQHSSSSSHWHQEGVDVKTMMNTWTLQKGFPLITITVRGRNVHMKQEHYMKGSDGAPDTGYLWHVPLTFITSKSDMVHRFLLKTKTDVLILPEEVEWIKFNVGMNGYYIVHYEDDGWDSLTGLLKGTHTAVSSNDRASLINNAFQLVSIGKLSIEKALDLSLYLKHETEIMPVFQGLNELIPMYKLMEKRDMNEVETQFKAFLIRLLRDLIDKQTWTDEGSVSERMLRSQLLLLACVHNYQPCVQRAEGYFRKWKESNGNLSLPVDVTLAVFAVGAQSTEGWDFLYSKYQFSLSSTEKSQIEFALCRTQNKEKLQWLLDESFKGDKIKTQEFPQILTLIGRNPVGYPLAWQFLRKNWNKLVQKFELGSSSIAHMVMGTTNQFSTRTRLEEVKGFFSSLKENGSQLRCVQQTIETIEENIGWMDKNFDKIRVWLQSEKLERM
Sequence of Neurotensin receptor type 1 (P30989 whole entry): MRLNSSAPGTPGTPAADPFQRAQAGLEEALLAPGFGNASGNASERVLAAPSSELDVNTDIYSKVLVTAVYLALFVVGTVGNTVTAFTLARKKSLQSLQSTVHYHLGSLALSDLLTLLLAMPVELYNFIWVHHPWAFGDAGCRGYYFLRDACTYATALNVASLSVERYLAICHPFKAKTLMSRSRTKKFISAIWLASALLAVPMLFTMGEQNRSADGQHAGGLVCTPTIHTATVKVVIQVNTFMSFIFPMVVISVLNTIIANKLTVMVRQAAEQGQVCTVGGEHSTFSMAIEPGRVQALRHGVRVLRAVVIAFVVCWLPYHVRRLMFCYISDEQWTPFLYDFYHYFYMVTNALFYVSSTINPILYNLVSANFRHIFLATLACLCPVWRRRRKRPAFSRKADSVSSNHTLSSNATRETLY
Sequence of Paired box protein Pax-8 (Q06710 whole entry): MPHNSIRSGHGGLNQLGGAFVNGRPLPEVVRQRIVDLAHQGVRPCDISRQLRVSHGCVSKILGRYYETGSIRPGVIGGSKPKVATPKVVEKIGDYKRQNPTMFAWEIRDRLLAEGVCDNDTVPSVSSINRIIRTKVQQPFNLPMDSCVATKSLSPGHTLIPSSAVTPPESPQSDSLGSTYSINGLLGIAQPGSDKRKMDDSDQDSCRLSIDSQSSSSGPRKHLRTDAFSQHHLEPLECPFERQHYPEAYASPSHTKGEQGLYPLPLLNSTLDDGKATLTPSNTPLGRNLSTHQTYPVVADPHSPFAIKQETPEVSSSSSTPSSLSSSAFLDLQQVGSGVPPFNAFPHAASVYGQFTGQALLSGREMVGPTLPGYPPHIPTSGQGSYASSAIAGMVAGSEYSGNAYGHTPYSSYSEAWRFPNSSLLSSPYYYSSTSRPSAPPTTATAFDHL
Sequence of Luciferin 4-monooxygenase (P08659 whole entry): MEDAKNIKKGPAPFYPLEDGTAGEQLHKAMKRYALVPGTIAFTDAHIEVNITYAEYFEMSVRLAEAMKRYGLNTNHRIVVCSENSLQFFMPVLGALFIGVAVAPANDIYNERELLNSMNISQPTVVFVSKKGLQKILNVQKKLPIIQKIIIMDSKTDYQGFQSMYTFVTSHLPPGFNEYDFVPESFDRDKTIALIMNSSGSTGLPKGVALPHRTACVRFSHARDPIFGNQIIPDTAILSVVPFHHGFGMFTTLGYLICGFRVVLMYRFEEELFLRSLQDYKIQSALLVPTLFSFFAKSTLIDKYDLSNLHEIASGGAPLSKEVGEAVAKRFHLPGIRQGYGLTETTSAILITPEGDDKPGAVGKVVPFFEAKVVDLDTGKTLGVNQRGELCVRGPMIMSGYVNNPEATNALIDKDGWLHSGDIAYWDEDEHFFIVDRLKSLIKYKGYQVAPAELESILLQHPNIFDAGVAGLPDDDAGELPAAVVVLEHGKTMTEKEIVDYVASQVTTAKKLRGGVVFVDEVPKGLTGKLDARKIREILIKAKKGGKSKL
Sequence of Genome polyprotein (P29990 2492-3391 limits assumed): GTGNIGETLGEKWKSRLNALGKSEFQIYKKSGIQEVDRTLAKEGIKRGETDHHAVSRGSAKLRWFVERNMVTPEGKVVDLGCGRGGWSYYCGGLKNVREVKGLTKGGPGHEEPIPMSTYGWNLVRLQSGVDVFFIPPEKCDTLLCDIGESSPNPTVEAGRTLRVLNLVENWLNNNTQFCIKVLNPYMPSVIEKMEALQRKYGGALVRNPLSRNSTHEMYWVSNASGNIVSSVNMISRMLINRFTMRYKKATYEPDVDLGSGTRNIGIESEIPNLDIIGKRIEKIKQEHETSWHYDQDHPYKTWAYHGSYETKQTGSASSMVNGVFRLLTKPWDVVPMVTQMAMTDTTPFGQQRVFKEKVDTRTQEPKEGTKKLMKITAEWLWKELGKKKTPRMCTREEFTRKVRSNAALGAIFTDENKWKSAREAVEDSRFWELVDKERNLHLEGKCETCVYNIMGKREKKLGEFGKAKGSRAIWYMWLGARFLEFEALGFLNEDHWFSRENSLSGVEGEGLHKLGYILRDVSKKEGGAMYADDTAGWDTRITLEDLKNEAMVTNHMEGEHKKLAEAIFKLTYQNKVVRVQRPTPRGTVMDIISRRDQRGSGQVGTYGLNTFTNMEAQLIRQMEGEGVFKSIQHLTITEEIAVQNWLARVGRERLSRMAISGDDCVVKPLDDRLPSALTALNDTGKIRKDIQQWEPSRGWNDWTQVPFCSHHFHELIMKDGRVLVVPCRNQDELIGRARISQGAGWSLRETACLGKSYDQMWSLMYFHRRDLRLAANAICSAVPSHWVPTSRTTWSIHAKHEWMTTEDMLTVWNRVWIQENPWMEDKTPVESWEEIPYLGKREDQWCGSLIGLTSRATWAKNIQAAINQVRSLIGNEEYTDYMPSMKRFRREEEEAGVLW

## Cc1ccc(NC(=O)CN(C)C(=O)CSc2nc3ccccc3c(=O)n2Cc2ccco2)cc1
cells
  IC50: 44.3 µM (active)
[1]
  CC50: 36.7 µM (active)

## O=C(CCNC(=O)c1ccc(Br)cc1)NC1CCCc2ccccc21 (configuration not stated)
cells
  IC50: 6.76 µM (active)
Vero
  IC50: 9.27 µM (active)
[1]
  CC50: 43.7 µM (active)

## COc1ccc(Cc2nn3c(-c4cc(OC)c(OC)c(OC)c4)nnc3s2)cc1
[2]
  IC50: > 100 µM (not active)

## CN(C)Cc1c(O)ccc2cc(-c3nc4ccccc4n3C)c(=O)oc12
[3]
  AC50: 1.56 µM (active)

## Cc1ccc(/C=C/S(=O)(=O)N2CCC(C(=O)O)CC2)cc1
HeLa
  AC50: > 350 µM (inactive)

## Oc1ccc(-[n+]2c(-c3ccccc3)cc(-c3ccccc3)cc2-c2ccccc2)cc1.[O-][Cl+3]([O-])([O-])[O-]
[4]
  EC50: > 160 µM (inactive)
[5]
  CC50: 9.19 µM (active)
[6]
  EC50: 0.879 µM (active)
[7]
  AC50: 9.88 µM (active)
[8]
  IC50: 9.1 µM (active)
INS1
  AC50: 3.38 µM (active)

## O=C(/C=C/Nc1ccccc1F)c1cccs1
[9]
  IC50: > 67.6 µM (inactive)
Protein skinhead-1
  IC50: 14.7 µM (active)
[10]
  EC50: 4.56 µM (active)
[11]
  EC50: 0.641 µM (active)

## CC1(C)CC(=O)C(C(C2=C(O)CC(C)(C)CC2=O)c2ccc(Br)s2)C(=O)C1 (configuration not stated)
[12]
  IC50: 61.5 µM (active)
Genome polyprotein
  IC50: 21.5 µM (active)
[13]
  EC50: 19.6 µM (active)

## COC(=O)C12OCC34C(CC5C(C)=C(O)C(=O)CC5(C)C3C(O)C1O)OC(=O)C(OC(=O)C=C(C)C)C24 (configuration not stated)
P388
  GI50: > 500 µM (inactive)
[14]
  AC50: 0.687 µM (active)
Protein skinhead-1
  IC50: 35.7 µM (active)
[8]
  IC50: 0.0223 µM (active)
Paired box protein Pax-8
  AC50: < 0.26 µM (active)
SN12K1
  GI50: 277 µM (inactive)
[15]
  AC50: < 0.26 µM (active)
P388/ADR
  GI50: > 500 µM (inactive)

## CC(C)(O)/C=C/C(=O)[C@](C)(O)C1[C@H](O)C[C@@]2(C)C3CC=C4C(C[C@H](O)[C@@H](O)C4(C)C)[C@]3(C)C(=O)C[C@]12C (some centres not stated)
[16]
  IC50: > 80 µM (inactive)

## N#Cc1c(N2CCNCC2)nc(-c2ccco2)c2c1CCCC2
[3]
  AC50: 6.11 µM (active)

## CCCCNc1c(-c2ccc(OC)c(SC(C)CC)c2)nc2ccc(C)cn12 (configuration not stated)
[17]
  AC50: 6.87 µM (active)
INS1
  AC50: 4.34 µM (active)
[13]
  EC50: 15.4 µM (active)

## Cc1cc(C(=O)Nc2cccc3c2O[C@H](CN(C)Cc2ccc(Oc4ccccc4)cc2)[C@@H](C)CN([C@H](C)CO)C3=O)n(C)n1
Paired box protein Pax-8
  AC50: 13.2 µM (active)
[18]
  AC50: > 70 µM (inactive)

## CC(=O)N1[C@@H]2c3ccc(/C=C/c4ccccc4)c(=O)n3C[C@H]1[C@H](CO)[C@H]2C(=O)N1CCOCC1
[3]
  AC50: 3.12 µM (active)

## C[C@H](CO)N1C[C@H](C)[C@H](CN(C)C(=O)Nc2cc(F)ccc2F)Oc2cc(/C=C/c3ccccc3)ccc2S1(=O)=O
[19]
  AC50: 2.62 µM (active)
[20]
  AC50: 86.7 µM (active)
[21]
  AC50: 2.06 µM (active)
[22]
  AC50: 1.77 µM (active)
[23]
  AC50: 0.962 µM (active)

## COc1cccc(CN2CCCCN3[C@H](CO)[C@@H](c4ccc(C#Cc5cccnc5)cc4)[C@@H]3C2)c1
[19]
  AC50: 2.2 µM (active)
[20]
  AC50: 22.7 µM (active)
[21]
  AC50: 1.21 µM (active)
[22]
  AC50: 1.34 µM (active)
[23]
  AC50: 0.427 µM (active)

## N#C[C@H]1[C@@H](c2ccc(C#Cc3ccccc3F)cc2)[C@@H](CO)N1C(=O)C1CCC1
[19]
  AC50: 0.779 µM (active)
[20]
  AC50: 44.9 µM (active)
[21]
  AC50: 1.04 µM (active)
[22]
  AC50: 1.57 µM (active)
[23]
  AC50: 0.613 µM (active)

From ChEMBL document CHEMBL1201862, “PubChem BioAssay data set” (2004)
